# Measured values reported in article PMC12040169 (PLOS Biology, 2025).
# Test: in vitro
# Details: human, hela cells, % viability
row,SMILES,"viability at 28.5 h, 10 µM [%]"
1,Cc1cc2nnn(C[C@@H](C)NC(=O)c3ccco3)c2cc1C [CBK282366],100
2,Cc1ccc(-c2cncc(N3CCCC3CO)n2)cc1C (stereo not shown) [CBK065945],89.1
3,O=C1Nc2ccc([N+](=O)[O-])cc2C1(O)N1CCCCC1 (stereo not shown) [CBK262496],80.6
4,Cc1nn(C)c(N2CCNCC2)c1NC(=O)Cc1cn(C)c2ccccc12 [CBK050254T],94.5
5,Fc1cccc(-c2nc3c(s2)CN(C2CCOCC2)CC3)c1 [CBK281647],87
6,O=C(CNCc1ccc2c(c1)OCO2)NCc1ccc2c(c1)OCO2 [CBK074763],86.8
7,CCCc1ccc(S(=O)(=O)N(c2ccccc2)C2CCNCC2)cc1 [CBK165121T],108
8,CCCc1n[nH]c(=S)n1CC(=O)Nc1cc(NC(=O)C2CC2)ccc1C [CBK297740],106
9,CCOC(=O)C1CCN(S(=O)(=O)c2ccc(C(C)(C)C)cc2)CC1 [CBK051240],83.5
10,CCOC(=O)CN1CCC(Oc2cncc(OCC3COc4ccccc4O3)n2)C1 (stereo not shown) [CBK084375],92.6
11,O=C(c1cccc(F)c1)N1CCC(c2nnc3n2CCCCC3)CC1 [CBK284627],103
12,Cc1nc(NC(=O)C2CC(=O)N(c3cccc(C(C)C)c3)C2)sc1-c1n[nH]c(=S)n1C (stereo not shown) [CBK295306],91
13,CSc1ncccc1C(=O)NCc1ccc(NC(C)=O)cc1 [CBK305009],97
14,O=C1N[C@]2(CCc3ccccc31)CN(Cc1ccsc1)C[C@H]2CO [CBK284793],90.7
15,O=c1[nH]c(=O)c2cc(S(=O)(=O)N3CCCC(CN4CCCC4)C3)ccc2[nH]1 (stereo not shown) [CBK286392],88.8
16,CCOC(=O)c1cnn2c(O)cc(CN3CCCC3c3ccsc3)nc12 (stereo not shown) [CBK305647],96.1
17,O=C(O)CCC(CCC(=O)O)([N+](=O)[O-])[N+](=O)[O-] [CBK260956],93.9
18,Cc1cc(COc2nccc(C(F)(F)F)n2)no1 [CBK115800],88.7
19,CC(C)(C)c1ccnc(N[C@H]2CO[C@H]3[C@@H]2OC[C@@H]3NCc2ccccn2)n1 [CBK289524],86.6
20,O=C(Cc1ccncc1)NC1Cc2ccccc2C1 [CBK200351],94.1
21,COc1ccccc1N1CCN(C(=O)NCc2cnc(C)cn2)CC1 [CBK155367],105
22,Cc1cc(C)n(C2CCN(Cc3c(C)nc4ccccn34)CC2)n1 [CBK281614],83.4

row,SMILES,"viability at 28.5 h, 10 µM [%]"
1,CN(C)c1cccc(Nc2ccc(-c3ccco3)cn2)c1 [CBK036885],96.8
2,COc1ccc(CCCC(=O)Nc2ccccc2N2CCNCC2)cc1OC [CBK028283T],107
3,CCCCC(=O)NCCc1ccc(S(N)(=O)=O)cc1 [CBK288360],91.5
4,O=C(CN1C(=O)c2ccccc2C1=O)OCC(=O)N1c2ccccc2Sc2ccccc21 [CBK264701],91.8
5,CC(c1cc2ccccc2s1)N(O)C(N)=O (stereo not shown) [CBK008078],98.2
6,C=CCOc1ccc(OCCN2CC(C)OC(C)C2)cc1 (stereo not shown) [CBK269646C],112
7,O=C(NCc1ccccn1)C(=O)N/N=C/c1ccccc1O [CBK262157],85.4
8,Cc1ccc(S(=O)(=O)N(CC(=O)NCC2CCCO2)c2cccc(C)c2C)cc1 (stereo not shown) [CBK265339],72.7
9,Cc1cc2ccccc2n1CC(=O)N1CCn2cnnc2C1 [CBK282209],108
10,Cc1csc2c(N3CCC(OCCN4CCCC4)CC3)ncnc12 [CBK304095],84
11,Cc1nc(C2CC(=O)N(Cc3ccccn3)C2)n(-c2ccccc2F)n1 (stereo not shown) [CBK306895],89.6
12,c1cc(-c2nccnc2Oc2ccc3c(c2)OCO3)ccn1 [CBK106726],92.4
13,NC(=O)CN1CC2(CCN(CC(=O)Nc3ccc(F)c(Cl)c3)CC2)c2ccccc21 [CBK126790],99.2
14,O=C(CO)N1CC2(CCN(Cc3ccc4ccccc4c3)CC2)c2ccccc21 [CBK131501],88.7
15,N[C@H]1CO[C@H]2[C@@H]1OC[C@@H]2n1cc(-c2ccccc2)nn1 [CBK289502],81.6
16,O=C(CN1C(=O)S/C(=C\c2ccc(Cl)cc2)C1=O)Nc1cc([N+](=O)[O-])ccc1O [CBK262396],90.4
17,Cc1cnn(CC(=O)NC(Cc2ccsc2)c2nccs2)c1 (stereo not shown) [CBK282825],105
18,Cc1ccccc1S(=O)(=O)Nc1nccnc1-c1ccc2c(c1)OCO2 [CBK050941],122
19,Cc1cc(C)n(C2CCN(Cc3nc4ccccc4[nH]3)CC2)n1 [CBK281620],103
20,CC(C)CCNC(=O)c1c(O)c2ccccc2[nH]c1=O [CBK159975],91.7
21,Cn1cccc1-c1cc(C(=O)N/N=C/c2cccc(O)c2)[nH]n1 [CBK263397],89.9
22,Cc1nn(-c2nc3ccccc3s2)c(O)c1C [CBK270254],87.8

row,SMILES,"viability at 28.5 h, 10 µM [%]"
1,O=S(=O)(Nc1cccc2[nH]ccc12)c1ccc(Br)cc1F [CBK153547],80.6
2,CCOC(=O)c1cnn2c(O)cc(CN3CCc4sccc4C3)nc12 [CBK305680],106
3,N#Cc1ccc(CNC(=O)N2CCN(Cc3ccccc3)CC2)cc1 [CBK155637],90.1
4,O=C(NCCCn1ccnc1)c1cc(-c2ccc(Br)cc2)nc2ccccc12 [CBK262645],84.8
5,Cc1cc(CN(C)c2nccc(N3CCN[C@H]4CS(=O)(=O)C[C@H]43)n2)no1 [CBK306580],109
6,O=C(O)c1cccc(-n2c(S)nnc2-c2ccc3ccccc3n2)c1 [CBK265810],103
7,S=C1NC2c3ccccc3OC3(CCCCC23)N1 (stereo not shown) [CBK288506],102
8,O=C(CC(CN1CCN(CC(=O)N2CCCC2)CC1)C(=O)O)Nc1ccccc1 (stereo not shown) [CBK286844],87.9
9,COc1ccc(C)cc1S(=O)(=O)Nc1cc(NCCCN2CCOCC2)c2occc2c1 [CBK067837C],105
10,O=S(=O)(c1ccc(-n2cnc(Cl)c2Cl)cc1)N1CCN(Cc2ccc(O)c(F)c2)CC1 [CBK062803],95.8
11,Cc1ccc(NC(=S)N2CCCC2C(=O)O)c(C)c1 (stereo not shown) [CBK007148],79.3
12,Cc1cc(N2CCOCC2)c2c(N)c(Br)cc(C)c2n1 [CBK066880],73
13,Cc1ccc(N(CC(=O)N/N=C/c2ccccc2)S(=O)(=O)c2ccccc2)cc1 [CBK262090],88.3
14,COc1ccc(CN2C(=O)CO[C@H]3CN(C(=O)COc4ccccc4)C[C@H]32)cc1 [CBK289262],108
15,CCNC(=O)N(C)c1c(CC)nc2ccc(C(=O)N3CCN(C(C)=O)CC3)cn12 [CBK146362],104
16,COc1ccc(S(=O)(=O)Nc2cccc(C(=O)O)c2)cc1C(=O)O [CBK264069],86.8
17,COc1ccc(NC(=O)CSc2nc(C)c(Cc3ccc(O)cc3)[nH]2)cc1 [CBK291171],95.4
18,COc1ccc(-c2n[nH]c(=S)n2CC(=O)Nc2nc(-c3ccc(C)cc3C)cs2)cc1 [CBK295316],96.9
19,N#Cc1cccnc1SC(C(=O)O)c1ccccc1 (stereo not shown) [CBK286614],106
20,C[C@@H](Cn1nc2c(cc1=O)CCCC2)NC(=O)Cc1cccc(F)c1 [CBK284527],95.9
21,CCN(CC1CCN(C)C1)C(=O)c1cc(COc2cccc(F)c2)[nH]n1 (stereo not shown) [CBK307239],88.8
22,CNC(=O)c1sc2ccccc2c1C1CCN(Cc2nc3ccccc3n2C(C)C)C1 (stereo not shown) [CBK285929],98.4

row,SMILES,"viability at 28.5 h, 10 µM [%]"
1,Cc1nnc(C(C)Sc2nnc(N3CCC(C)CC3)n2Cc2ccco2)o1 (stereo not shown) [CBK298311],96.6
2,O=C1c2cccc3cccc(c23)C(=O)N1CCN1CCN(S(=O)(=O)c2ccccc2[N+](=O)[O-])CC1 [CBK262530],97.7
3,CSc1nncc(-c2ccc(Cl)cc2)n1 [CBK028747],77.1
4,Cc1ccccc1CN(CC(=O)NC1CC1)S(=O)(=O)c1ccc(Cl)cc1 [CBK265757],98.3
5,CCCOc1ccc(-c2nnn(CC(=O)OCC)n2)cc1 [CBK068817],98.8
6,CC(C)(C)c1ccc(NC(=O)n2ccc3c(N4CCNCC4)cccc32)cc1 [CBK003736C],27
7,CC(CN1CCOCC1)OC(=O)c1ccco1 (stereo not shown) [CBK264606C],92.9
8,CC1(C)Cc2nc3sc(C(=O)O)c(NC(=O)c4ccccc4)c3cc2CO1 [CBK266166],98.4
9,CCN(c1ccc(NC(=O)Cn2nc(C(=O)O)c3ccccc3c2=O)cc1)C(C)C [CBK297734],94.5
10,CC(NC(=O)CCc1cscn1)c1nc(-c2ccncc2)cs1 (stereo not shown) [CBK305260],77.6
11,CSc1cccc(CN2C[C@H]3CN(C(=O)C4CCC4)C[C@@]3(C(=O)O)C2)c1 [CBK307645],88.4
12,CCCC(C)N(C)C(=O)CCc1c(C)nc(-c2cccnc2)[nH]c1=O (stereo not shown) [CBK304965],106
13,O=C(NO)c1nccnc1-c1ccc(COc2ccccc2)cc1 [CBK050841],96.4
14,O=C(Nc1cccc(-c2nnn[nH]2)c1)c1ccc(Cl)c(Cl)c1 [CBK144713],89.3
15,O=C1CC2(CCCCC2)C(C(=O)O)N1 (stereo not shown) [CBK009895],114
16,O=S(=O)(c1ccccc1)c1nc(-c2ccco2)oc1NCc1cccnc1 [CBK287610],69.5
17,O=C([C@@H]1C[C@@H](O)[C@H](O)[C@@H]2NC(=S)N(c3ccc4c(c3)OCO4)[C@@H]21)N1CCCCC1 [CBK288945],87.3
18,CNC(=S)N1CCN(c2nccnc2NS(=O)(=O)C2CC2)CC1 [CBK048905],96.2
19,CC(C)C(=O)N1CC2(CCN(CC3COc4ccccc4O3)CC2)c2ccccc21 (stereo not shown) [CBK143946],98.2
20,CCS(=O)(=O)N1CC2CCCC(O)(c3ccc(F)cc3)C2C1 (stereo not shown) [CBK284363],80.5
21,CN(C)CCN(C)Cc1ccc([N+](=O)[O-])cc1 [CBK261728],110

# Same assay, conditions: human, hela cells, % viability, bulk resorufin, single well
row,SMILES,"viability at 28.5 h, 10 µM [%]"
1,O=C(N[C@H]1CCN2C(=O)N(CCCl)C(=O)[C@@H]2C1)c1ccncc1 [CBK289551],88.3
